Tests used:
[1] = system: present invention protein (A15); assay: Metabolism of compounds by the present invention protein (A15), reaction solution, HPLC; assay type: in vitro ADME, Streptomyces olivochromogenes IFO 12444; settings: 5 ppm of compound, components A, B, C, 20 μl supernatant fraction of Example 40(2), 30° C. for 10 minutes
[2] = system: present invention protein (A25); assay: Metabolism of compounds by the present invention protein (A25), reaction solution, HPLC; assay type: in vitro ADME, Streptomyces steffisburgensis IFO 13446T; settings: 12.5 ppm of compound, components A, B, C, 20 μl supernatant fraction of Example 67(2), 30° C. for 10 minutes
present protein (A10) = molecular target: T1, present protein (A10) (Streptomyces griseolus, UniProt P18326); assay type: in vitro ADME, Streptomyces griseolus ATCC 11796; settings: 5 ppm of compound, components A, B, C, 20 μl supernatant fraction of Example 10(2), 30° C. for 10 minutes, HPLC
T1 construct: made in house; host or cells: E. coli JM109 carrying pKSN11796 or pKSN11796F; 150,000 x g supernatant (crude extract)

[3] = system: present invention protein (A22); assay: Metabolism of compounds by the present invention protein (A22), reaction solution, HPLC; assay type: in vitro ADME, Streptomyces pallidus IFO 13434T; settings: 12.5 ppm of compound, components A, B, C, 20 μl supernatant fraction of Example 61(2), 30° C. for 10 minutes
[4] = system: present invention protein (A22); assay: Detection of the ability to convert compound (II) to compound (III), E. coli pKSN1558BF extract; assay type: in vitro ADME, Streptomyces pallidus IFO 13434T; settings: 3 ppm of compound (II) labeled with 14C, components A, B, 10 minutes at 30° C.
Description: Reaction solutions of 30 μl were prepared and maintained for 10 minutes at 30° C. The reaction solutions consisted of a 0.1M potassium phosphate buffer (pH7.0) containing 3 ppm of compound (II) labeled with ^14C, 2 mM of β-NADPH (hereinafter, referred to as “component A”) (Oriental Yeast Company), 2 mg/ml of a ferredoxin derived from spinach (hereinafter referred to as “component B”) (Sigma Company), 0.1 U/ml of ferredoxin reductase (hereinafter, referred to as “component C”) (Sigma Company) and 23 μl of the supernatant fraction recovered in Example 32(2). Similarly to Example 4(3), the reaction solutions after the maintenance were extracted with ethyl acetate and the extracted layers were TLC analyzed. […] A spot corresponding to compound (III) was detected from the reaction solution containing E. coli pKSN849AF extract. In contrast, such a spot was not detected from the reaction solution containing E. coli pKSN2 extract.
Similarly to Example 32(3), reaction solutions of 30 μl were prepared and maintained for 10 minutes at 30° C. […] The reaction solutions after the maintenance were extracted with ethyl acetate and the extracted layers were TLC analyzed. […] A spot corresponding to compound (III) was detected from the reaction solution containing E. coli pKSN1558BF extract. In contrast, such a spot was not detected from the reaction solution containing E. coli pKSN2 extract.

[5] = system: leaf pieces derived from the tobacco to which the control DNA (T-DNA region of plasmid pBI121S) was introduced; assay: Herbicidal damage of tobacco leaf pieces on MS agar medium containing compound (II); assay type: cell-based, Nicotiana tabacum strain SR1; settings: MS agar medium containing 0.1 mg/L of compound (II), in the light at room temperature, 7th day of culturing
Description: Then, according to the method described in Manual for Gene Manipulation of Plant (by Hirofumi UCHIMIYA, Kodan-sha Scientific, 1992), the gene was introduced into tobacco. Agrobacterium strains bearing the above plasmids were each cultured at 28° C. overnight in LB medium containing 300 mg/L streptomycin, 100 mg/L rifampicin and 25 mg/L kanamycin, and then leaf pieces of tobacco (Nicotiana tabacum strain SR1) cultured sterilely were dipped in the liquid culture medium. The leaf pieces were planted and cultured at room temperature for 2 days in the light in MS agar medium (MS inorganic salts, MS vitamins, 3% sucrose and 0.8% agar; described in Murashige T. and Skoog F., Physiol. Plant. (1962) 15, p 473) containing 0.1 mg/L of naphthalene acetic acid and 1.0 mg/L of benzyl aminopurine. Then, the leaf pieces were washed with sterilized water and cultured for 7 days on MS agar medium containing 0.1 mg/L of naphthalene acetic acid, 1.0 mg/L of benzyl aminopurine and 500 mg/L of cefotaxime. Next, the leaf pieces were transplanted and cultured in MS agar medium containing 0.1 mg/L of naphthalene acetic acid, 1.0 mg/L of benzyl aminopurine, 500 mg/L of cefotaxime and 100 mg/L of kanamycin. The culture was conducted continuously for 4 months while transplanting the leaf pieces to fresh medium of the same composition at intervals of 4 weeks. […]

[6] = system: leaf pieces derived from the tobacco to which the present invention DNA (A2) was introduced; assay: as above; assay type: cell-based; settings: MS agar medium containing 0.1 mg/L of compound (II), in the light at room temperature, 7th day of culturing
Description: Leaf pieces of sterily cultured tobacco were infected with each of the agrobacterium strain bearing pBI-NdG6-rSt-923 and the agrobacterium strain bearing pBI-NdG6-rSt12-923. Tobaccos in which the present invention DNA (A2) has been introduced were obtained under the procedures similar to the methods described in Example 19.
Three (3) leaves were taken from the obtained transgenic tobacco. Each leaf was divided into 4 pieces in which each piece was 5 to 7 mm wide. Each of the leaf pieces were planted onto MS agar medium containing 0.1 mg/L of compound (II) and cultured in the light at room temperature. On the 7th day of culturing, the herbicidal damage of each of the leaf pieces was observed.

T1 sequence (P18326 whole entry H308Q): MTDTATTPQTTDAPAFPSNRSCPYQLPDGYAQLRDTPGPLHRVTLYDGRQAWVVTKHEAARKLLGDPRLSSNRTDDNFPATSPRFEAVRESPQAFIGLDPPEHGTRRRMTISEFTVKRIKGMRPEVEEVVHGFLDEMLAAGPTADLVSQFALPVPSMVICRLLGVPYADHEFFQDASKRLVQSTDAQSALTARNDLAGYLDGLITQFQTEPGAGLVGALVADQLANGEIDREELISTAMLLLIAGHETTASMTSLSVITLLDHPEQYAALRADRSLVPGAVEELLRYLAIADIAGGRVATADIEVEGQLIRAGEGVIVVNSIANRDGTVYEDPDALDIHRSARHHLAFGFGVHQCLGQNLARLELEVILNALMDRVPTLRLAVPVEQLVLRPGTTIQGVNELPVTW

| SMILES | concentration of the compound detected from metabolism solution (A15) compared to control solution (A15) [1] | concentration of the compound detected from metabolism solution (A25) compared to control solution (A25) [2] | concentration of the compound detected from metabolism solution (A10) compared to control solution (A10) (present protein (A10)) | concentration of the compound detected from metabolism solution (A22) compared to control solution (A22) [3] | spot corresponding to compound (III) labeled with 14C (TLC) [4] | herbicidal damage of the leaf pieces [5] | herbicidal damage of the leaf pieces [6] |
| --- | --- | --- | --- | --- | --- | --- | --- |
| Cn1c(C(F)(F)F)cc(=O)n(-c2cc(Oc3ccccc3OCC(=O)O)c(Cl)cc2F)c1=O [compound (XIII)] | lower | lower | lower | – | – | – | – |
| Cn1c(C(F)(F)F)cc(=O)n(-c2cc(Oc3cccnc3OCC(=O)O)c(Cl)cc2F)c1=O [compound (XII)] | lower | lower | lower | lower | – | – | – |
| C[C@@H](Oc1cc(-n2c(=O)cc(C(F)(F)F)n(C)c2=O)c(F)cc1Cl)C(=O)O [compound (II)] | – | – | – | – | detected | turned white and withered | grew continuously |

Source: patent US8293979B2, “Weed controller metabolism proteins, genes, thereof and use of the same” (Sumitomo Chemical Company, Limited, priority 2001, dated 2012)
